#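 GI50 marks 50% less growth. TGI: concentration producing complete growth inhibition.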
# How the values were obtained:
# Assay in all cases: growth of human tumour cells (NCI), 384-well format
# 786-0 renal = test system: 786-0 renal
# A498 renal = test system: A498 renal
# A549 NSCLC = test system: A549 NSCLC
# ACHN renal = test system: ACHN renal
# BT-549 breast = test system: BT-549 breast
# CAKI-1 renal = test system: CAKI-1 renal
# CCRF-CEM leukemia = test system: CCRF-CEM leukemia
# COLO 205 colon = test system: COLO 205 colon
# DU-145 prostate = test system: DU-145 prostate
# EKVX NSCLC = test system: EKVX NSCLC
# HCC-2998 colon = test system: HCC-2998 colon
# HCT-15 colon = test system: HCT-15 colon
# HL-60(TB) leukemia = test system: HL-60(TB) leukemia
# HOP-62 NSCLC = test system: HOP-62 NSCLC
# HOP-92 NSCLC = test system: HOP-92 NSCLC
# HS 578T breast = test system: HS 578T breast
# HT29 colon = test system: HT29 colon
# IGROV1 ovarian = test system: IGROV1 ovarian
# KM12 colon = test system: KM12 colon
# M14 melanoma = test system: M14 melanoma
# MALME-3M melanoma = test system: MALME-3M melanoma
# MCF7 breast = test system: MCF7 breast
# MDA-MB-231 breast = test system: MDA-MB-231 breast
# MDA-MB-435 melanoma = test system: MDA-MB-435 melanoma
# MDA-MB-468 breast = test system: MDA-MB-468 breast
# MOLT-4 leukemia = test system: MOLT-4 leukemia
# NCI-H226 lung = test system: NCI-H226 lung
# NCI-H23 lung = test system: NCI-H23 lung
# NCI-H322M lung = test system: NCI-H322M lung
# NCI-H460 NSCLC = test system: NCI-H460 NSCLC
# NCI-H522 lung = test system: NCI-H522 lung
# NCI/ADR-RES ovarian = test system: NCI/ADR-RES ovarian
# OVCAR-3 ovarian = test system: OVCAR-3 ovarian
# OVCAR-4 ovarian = test system: OVCAR-4 ovarian
# OVCAR-5 ovarian = test system: OVCAR-5 ovarian
# OVCAR-8 ovarian = test system: OVCAR-8 ovarian
# PC-3 prostate = test system: PC-3 prostate
# RPMI-8226 leukemia = test system: RPMI-8226 leukemia
# RXF 393 renal = test system: RXF 393 renal
# SF-268 CNS = test system: SF-268 CNS
# SF-295 CNS = test system: SF-295 CNS
# SF-539 CNS = test system: SF-539 CNS
# SK-MEL-2 melanoma = test system: SK-MEL-2 melanoma
# SK-MEL-28 melanoma = test system: SK-MEL-28 melanoma
# SK-MEL-5 melanoma = test system: SK-MEL-5 melanoma
# SK-OV-3 ovarian = test system: SK-OV-3 ovarian
# SN12C renal = test system: SN12C renal
# SNB-19 CNS = test system: SNB-19 CNS
# SNB-75 CNS = test system: SNB-75 CNS
# SR leukemia = test system: SR leukemia
# SW-620 colon = test system: SW-620 colon
# T-47D breast = test system: T-47D breast
# TK-10 renal = test system: TK-10 renal
# U251 glioblastoma = test system: U251 glioblastoma
# UACC-257 melanoma = test system: UACC-257 melanoma
# UACC-62 melanoma = test system: UACC-62 melanoma
smiles,measurement,setting,value
Nc1ccn([C@H]2C[C@@H](O)[C@@H](CO)S2)c(=O)n1,GI50,786-0 renal,54.1 µM
same,TGI,786-0 renal,> 100 µM
same,GI50,A498 renal,> 100 µM
same,TGI,A498 renal,> 100 µM
same,GI50,A549 NSCLC,> 100 µM
same,TGI,A549 NSCLC,> 100 µM
same,GI50,ACHN renal,> 100 µM
same,TGI,ACHN renal,> 100 µM
same,GI50,BT-549 breast,0.896 µM
same,TGI,BT-549 breast,26.3 µM
same,GI50,CAKI-1 renal,> 100 µM
same,TGI,CAKI-1 renal,> 100 µM
same,GI50,CCRF-CEM leukemia,0.0552 µM
same,TGI,CCRF-CEM leukemia,0.862 µM
same,GI50,COLO 205 colon,> 100 µM
same,TGI,COLO 205 colon,> 100 µM
same,GI50,DU-145 prostate,20.2 µM
same,TGI,DU-145 prostate,> 100 µM
same,GI50,EKVX NSCLC,> 100 µM
same,TGI,EKVX NSCLC,> 100 µM
same,GI50,HCC-2998 colon,4.98 µM
same,TGI,HCC-2998 colon,> 100 µM
same,GI50,HCT-15 colon,1.71 µM
same,TGI,HCT-15 colon,> 100 µM
same,GI50,HL-60(TB) leukemia,0.306 µM
same,TGI,HL-60(TB) leukemia,1.26 µM
same,GI50,HOP-62 NSCLC,21.8 µM
same,TGI,HOP-62 NSCLC,> 100 µM
same,GI50,HOP-92 NSCLC,2.35 µM
same,TGI,HOP-92 NSCLC,> 100 µM
same,GI50,HS 578T breast,> 100 µM
same,TGI,HS 578T breast,> 100 µM
same,GI50,HT29 colon,> 100 µM
same,TGI,HT29 colon,> 100 µM
same,GI50,IGROV1 ovarian,> 100 µM
same,TGI,IGROV1 ovarian,> 100 µM
same,GI50,KM12 colon,9.08 µM
same,TGI,KM12 colon,> 100 µM
same,GI50,M14 melanoma,> 100 µM
same,TGI,M14 melanoma,> 100 µM
same,GI50,MALME-3M melanoma,> 100 µM
same,TGI,MALME-3M melanoma,> 100 µM
same,GI50,MCF7 breast,> 100 µM
same,TGI,MCF7 breast,> 100 µM
same,GI50,MDA-MB-231 breast,2.95 µM
same,TGI,MDA-MB-231 breast,> 100 µM
same,GI50,MDA-MB-435 melanoma,> 100 µM
same,TGI,MDA-MB-435 melanoma,> 100 µM
same,GI50,MDA-MB-468 breast,> 100 µM
same,TGI,MDA-MB-468 breast,> 100 µM
same,TGI,MOLT-4 leukemia,0.0271 µM
same,GI50,NCI-H226 lung,96.9 µM
same,TGI,NCI-H226 lung,> 100 µM
same,GI50,NCI-H23 lung,> 100 µM
same,TGI,NCI-H23 lung,> 100 µM
same,GI50,NCI-H322M lung,> 100 µM
same,TGI,NCI-H322M lung,> 100 µM
same,GI50,NCI-H460 NSCLC,0.204 µM
same,TGI,NCI-H460 NSCLC,> 100 µM
same,GI50,NCI-H522 lung,0.113 µM
same,TGI,NCI-H522 lung,1.15 µM
same,GI50,NCI/ADR-RES ovarian,1.38 µM
same,TGI,NCI/ADR-RES ovarian,> 100 µM
same,GI50,OVCAR-3 ovarian,3.29 µM
same,TGI,OVCAR-3 ovarian,> 100 µM
same,GI50,OVCAR-4 ovarian,> 100 µM
same,TGI,OVCAR-4 ovarian,> 100 µM
same,GI50,OVCAR-5 ovarian,> 100 µM
same,TGI,OVCAR-5 ovarian,> 100 µM
same,GI50,OVCAR-8 ovarian,0.783 µM
same,TGI,OVCAR-8 ovarian,30.8 µM
same,GI50,PC-3 prostate,> 100 µM
same,TGI,PC-3 prostate,> 100 µM
same,GI50,RPMI-8226 leukemia,0.368 µM
same,TGI,RPMI-8226 leukemia,1.59 µM
same,GI50,RXF 393 renal,6.98 µM
same,TGI,RXF 393 renal,> 100 µM
same,GI50,SF-268 CNS,54.4 µM
same,TGI,SF-268 CNS,> 100 µM
same,GI50,SF-295 CNS,> 100 µM
same,TGI,SF-295 CNS,> 100 µM
same,GI50,SF-539 CNS,> 100 µM
same,TGI,SF-539 CNS,> 100 µM
same,GI50,SK-MEL-2 melanoma,> 100 µM
same,TGI,SK-MEL-2 melanoma,> 100 µM
same,GI50,SK-MEL-28 melanoma,> 100 µM
same,TGI,SK-MEL-28 melanoma,> 100 µM
same,GI50,SK-MEL-5 melanoma,0.804 µM
same,TGI,SK-MEL-5 melanoma,> 100 µM
same,GI50,SK-OV-3 ovarian,> 100 µM
same,TGI,SK-OV-3 ovarian,> 100 µM
same,GI50,SN12C renal,11.6 µM
same,TGI,SN12C renal,> 100 µM
same,GI50,SNB-19 CNS,4.99 µM
same,TGI,SNB-19 CNS,> 100 µM
same,GI50,SNB-75 CNS,> 100 µM
same,TGI,SNB-75 CNS,> 100 µM
same,GI50,SR leukemia,2.5 µM
same,TGI,SR leukemia,15.8 µM
same,GI50,SW-620 colon,> 100 µM
same,TGI,SW-620 colon,> 100 µM
same,GI50,T-47D breast,> 100 µM
same,TGI,T-47D breast,> 100 µM
same,GI50,TK-10 renal,> 100 µM
same,TGI,TK-10 renal,> 100 µM
same,GI50,U251 glioblastoma,> 100 µM
same,TGI,U251 glioblastoma,> 100 µM
same,GI50,UACC-257 melanoma,> 100 µM
same,TGI,UACC-257 melanoma,> 100 µM
same,GI50,UACC-62 melanoma,> 100 µM
same,TGI,UACC-62 melanoma,> 100 µM

# — PubChem BioAssay (NCI)
